No end group written: not given here.
Experiments:
A/Aichi/2/68 H3N2 [1] = format: cell-based, influenza A virus
A/California/7/2009 H1N1 = format: binding, influenza A virus
A/Aichi/2/68 H3N2 [2] = experiment: Infectivity inhibition assay (MTS, MDCK II cells); format: cell-based, influenza A virus; conditions: MOI 0.05, 24 h, concentration dependent, maximum, FIG. 8
influenza A virus = format: cell-based
A/Aichi/2/68 H3N2 (X31) = format: binding, influenza A virus
[3] = system: X31 virus (A/Aichi/2/68 H3N2); experiment: Inhibition of influenza A virus binding to fetuin (SPR)
[4] = system: A/Mute swan/Germany/R901/06 H7N1
A/Panama/2007/1999 H3N2 = format: cell-based, influenza A virus; conditions: read-out: Mean Ki(HAI)
A/Aichi/2/68 H3N2 [5] = system: A/Aichi/2/68 H3N2
A/Aichi/2/68 H3N2 [6] = experiment: Viral fusion with human erythrocyte ghosts (R18 dequenching); format: cell-based, influenza A virus; conditions: concentration-dependent, maximum; pH 5; FIG. 7
[7] = system: A/Mute swan/Germany/R901/06 K3141 H7N1
A/NewYork/55/2004 H3N2 = format: binding, influenza A virus
[8] = system: influenza A virus strains H3N2 (X31), H7N1, H1N1, H5N1, H3N2 (Victoria), H3N2 (NY); format: binding

KKKKFYGYDVFF-NH2 [SEQ ID NO:28]
inhibition of viral attachment to single red blood cells (A/Aichi/2/68 H3N2 [1]): up to 50% | binding preference among the three tested strains (A/California/7/2009 H1N1): shifts the binding preference strongly to H1N1/2009 | factor of enhanced binding capability in comparison to SEQ ID NO:1 (A/California/7/2009 H1N1): 24 | protection from infection / reduction of infectivity (A/Aichi/2/68 H3N2 [2]): up to 55% | fold lower Ki(HAI) than the conventional peptides (SEQ ID NO:100, 101, 102) (influenza A virus): up to 1,600 fold | factor of increased binding signal in comparison to SEQ ID NO:1 (A/Aichi/2/68 H3N2 (X31)): 2 | IC50 ([3]; A/Aichi/2/68 H3N2 (X31), SPR, read-out: Inhibition of binding to fetuin (IC50, RB)): 20 µM | fold lower IC50,RB in comparison to reference peptide SEQ ID NO:1 ([3]; X31): about 4.5 fold | IC50 [4]: 30 µM | Ki (A/Panama/2007/1999 H3N2): 0.1 µM | IC50 (A/Aichi/2/68 H3N2 [5]; A/Aichi/2/68): 18 µM | Ki (A/Aichi/2/68 H3N2 [5]; read-out: Mean Ki(HAI)): 31.9 µM | inhibition of fusion efficiency with erythrocyte ghosts (A/Aichi/2/68 H3N2 [6]): up to 40% | IC50 [7]: 23 µM | Ki ([7]; read-out: Mean Ki(HAI)): 36.5 µM | factor of enhanced binding capability in comparison to SEQ ID NO:1 (A/NewYork/55/2004 H3N2): 4

SEQ ID NO:23 (FYYYDVFY; Synthetically produced peptide)
binding preference among the three tested strains (A/California/7/2009 H1N1): shifts the binding preference strongly to H1N1/2009

SEQ ID NO:29 (FYYYDVFF; Synthetically produced peptide)
binding preference among the three tested strains (A/California/7/2009 H1N1): shifts the binding preference strongly to H1N1/2009

SEQ ID NO:33 (FYGYDVAF; Synthetically produced peptide)
relative binding preference for virus strains, in descending order [8]: H7N1 over H3N2 (X31), H3N2 (NY) and H5N1

SEQ ID NO:34 (FLGYDVFF; Synthetically produced peptide)
relative binding preference for virus strains, in descending order [8]: H3N2 (NY) over H5N1, H3N2 (X31) and H7N1

SEQ ID NO:76 (FYDYDRFY; Synthetically produced peptide)
virus binding (SPR) (A/California/7/2009 H1N1): does not bind | virus binding (SPR) (A/Aichi/2/68 H3N2 (X31)): does not bind | virus binding (SPR) (A/NewYork/55/2004 H3N2): specifically binds

SEQ ID NO:97 (FYGYDVKF; Synthetically produced peptide)
relative binding preference for virus strains, in descending order [8]: H5N1 over H7N1, H3N2 (X31) and H3N2 (NY)
